No end group written: not given here.

For test [1], the system named is MDA-MB-231 cell xenograft. The settings on record: ectopic expression; Zhang, Zhong et al. 1997; cited from earlier work.
A further test relates to ALK. Kind of test: ALK activation in MDA-MB-231 cells stably transfected with dominant negative PTN (anti-ALK phosphotyrosine 1586/1604 Western blot). Type of test: cell-based, human. Particulars: cells expressing dominant negative PTN vs empty vector. How it is done: FIG. 18: FIG. 18 illustrates: that a dominant negative PTN blocks ALK activation. MDA-MB-231 cells were transfected with an empty vector or cDNA encoding a dominant negative PTN 1-40. Cell lysates were prepared and analyzed in Western blots probed with anti-phospho-ALK tyrosine 1586/1604 (left two lanes) or separately with anti-ALK antibodies (right two lanes). Arrows point full length ALK (200 kDa) and activated ALK phosphotyrosines 1586/1604.
To test whether ALK is activated through the PTN/RPTPβ/ζ signaling pathway in MDA-MB-231 cells, lysates from MDA-MB-231 cells, stably transfected with dominant negative PTN, were first analyzed in Western blots probed with anti-ALK and with anti-ALK phosphotyrosine 1586/1604 antibodies specific for activated ALK (Bai, Dieter et al. 1998, Mol Cell Biol 18(12): 6951-61). Anti-ALK phosphotyrosines 1586/1604 immunoreactive proteins were only identified in lysates from MDA-MB-231 empty vector cells, consistent with results above and supporting ALK is activated in cells with an activated PTN/RPTPβ/ζ signaling pathway.
The vector pcDNA3.1/PTN1-40 was constructed by inserting the cDNA fragment encoding residues −32 to 40 of human PTN protein into XbaI and BamHI of pcDNA3.1/myc-his/hygro vector (Invitrogen).

Test [2] concerns MMTV-PyMT mouse breast cancers. In words: breast cancer progression in MMTV-PyMT-PTN 1-40 bi-transgenic mice. It counts as in vivo. The text has this: The MMTV LTP promoter and human cDNA encoding PTN 1-40 (residue −32 to residue 40) was amplified using PCR from pcDNA3.1-Ptn (constructed by our laboratory). After restriction enzyme digestion, MMTV LTR and Ptn 1-40 cDNA were inserted into EcoR V, Not I and EcoR I site of pIRES-EGFP (BD clontech). The sequence of the final transgene construction (MMTV-PTN-IRES-EGFP) was verified by nucleotide sequencing. The transgene construction was freed of the bacterial sequences by digestion with EcoR V and Xho I, producing a 4.0-kb linear DNA fragment. The 4.0-kb linear DNA that was injected into the fertilized eggs of FVB mice consisted of the MMTV-LTR, PTN 1-40 cDNA, IRES (internal ribosomal entry site), EGFP cDNA, SV40 poly-adenylation sequences. Tail DNA from weaning mice derived from the transgene-injected eggs was analyzed by PCR. The mice were housed in animal facility of The Scripps Research Institute and were maintained according to NIH guidelines for the Care and Use of Laboratory Animals.
FVB/N-Tg(MMTV-PyVT)634Mul/J transgenic mice were purchased from Jackson laboratory. They develop spontaneous metastatic mammary carcinomas and have been described in before. […] Transgenic animals were genotyped using PCR analysis of genomic DNA obtained from tails. When possible, litter mates with both genotypes were used in the same experiment.
Mice were examined daily seeking mammary tumors by eye examination and finger palpation after 5 weeks of age. The tumors fully formed on the mammary glands were excised and weighed in 12-14 weeks old mice depending on the tumor size in bi-transgenic mice. Tumor length (L) and width (W) were measured 3 times a week using calipers. Tumor volume was estimated using the formula (L×W2)/2. Total wet tumor weight was weighed by scale when the tumors were excised from sacrificed mice.
The tumor tissue excised from euthanized animals was fixed in 10% buffered formalin and embedded in paraffin. The specimens were sectioned, stained with H&E, and Masson trichrome stain for collagen fibers.
Tumor tissue was fixed by 4% paraformaldehyde in phosphate-buffered saline (PBS). After PBS rinse, the tissues were cryoprotected with 30% sucrose in PBS at […] overnight, then infiltrated with a mixture of 1 parts 30% sucrose phosphate buffer to 1 part Histo Prep™ Frozen tissue embedding media (Fisher Scientific) for ½ hour at room temperature before infiltration with 100% Histo Prep™ and freezing. Cryosections ([…]) were cut and immunohistochemistry was performed using rat anti-mouse CD31 (PECAM-1. BD Pharmingen) antibodies. IMD (number of vessels/mm2) was obtained by counting CD31+ vessels in 10 random fields at ×200 magnification.
Reverse transcription was done using […] total RNA in the presence of 50 ng random hexamers using Ominscipt kit (Qiagen) following manufacturer's recommendations. Real time PCR was done using ICycler (BIORAD). The amplification conditions were: one cycle of 95° C.°, 3 min followed by 40 cycles of 95 C°, 30 sec and 60 C°, 15 sec. GAPDH was used as internal control. The fold changes relative to GAPDH was calculated using the formula: Fold Change=2 L (Ct Target1-CtTarget2)/2 L (Ct GAPDH1-CtGAPDH2) Where: Ct is the threshold of cycle number. Target is the gene measured. Number 1 and 2 represent different samples.

Regarding “dominant negative PTN: mutant PTN (residues 1-40) forming mixed disulfide linked heterodimers with wild-type PTN; expressed from cDNA or transgene (GKKEKPEKKVKKSDCGEWQWSVCVPTSGDCGLGTREGTRT; also: forms mixed disulfide linked heterodimers with wild-type PTN; UniProt P21246 33-72, looked up, fragment)”, the “MDA-MB-231 cell xenograft growth in nude mice” value in test [1] is listed as “prevented MDA-MB-231 cell xenograft growth”. Further, the “anti-ALK phosphotyrosines 1586/1604 immunoreactive proteins” value in the test with ALK is reported as “essentially non-identifiable”. In addition, in test [2] (13-week mice, 2% in MMTV-PyMT, p=0.017), the “percentage area of adenoma/MIN” value is recorded as 12%. Further, in test [2] (13-week mice, 20% in MMTV-PyMT, p=0.045), the “percentage area occupied by early carcinoma” value stood at 41%. Moreover, the “percentage area occupied by later carcinoma” value in test [2] (13-week mice, 78% in MMTV-PyMT, P=0.024) is “about 45%”. Further, the “foci of scirrhous carcinoma” value in test [2] (MMTV-PyMT-PTN 1-40 bi-transgenic mouse breast cancers) was “not seen”. The “average intratumor microvessel density (IMD)” value in test [2] (about 30 in MMTV-PyMT, P<0.05) is “about 18 blood vessels/mm2”. Moreover, the “tropoelastin and protocollagen mRNA levels (RT-PCR)” value in test [2] (compared with MMTV-PyMT mice) is “not statistically different”. The “activated fibroblasts in breast cancers” value in test [2] (compared with MMTV-PyMT-Ptn and MMTV-PyMT mice) is recorded as “marked reduction”.
